From patent US9777005B2 (Takeda Pharmaceutical Company Limited, priority 2012, dated 2017)

Molecular target: T1, human M1 receptor (hCHRM1) (Homo sapiens, UniProt P11229)
T1 construct: expressed in transfected cells; host or cells: CHO-K1
T1 sequence (P11229 1-460): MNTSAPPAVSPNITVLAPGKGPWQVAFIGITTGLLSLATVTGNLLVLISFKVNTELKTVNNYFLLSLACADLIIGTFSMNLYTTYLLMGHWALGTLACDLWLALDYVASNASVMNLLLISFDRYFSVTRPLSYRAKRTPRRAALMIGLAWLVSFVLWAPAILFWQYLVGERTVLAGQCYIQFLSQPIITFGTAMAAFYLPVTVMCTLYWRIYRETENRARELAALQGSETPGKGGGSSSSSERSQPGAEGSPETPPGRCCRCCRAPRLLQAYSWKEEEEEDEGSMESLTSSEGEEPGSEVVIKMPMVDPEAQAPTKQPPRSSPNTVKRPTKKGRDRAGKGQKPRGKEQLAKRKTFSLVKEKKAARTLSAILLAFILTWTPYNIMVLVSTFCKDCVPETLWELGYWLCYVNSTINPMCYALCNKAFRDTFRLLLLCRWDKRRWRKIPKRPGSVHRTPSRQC
Assay: Measurement of M1 receptor positive allosteric modulator (M1PAM) activity, calcium fluorescence (FLIPRtetra) in CHO-K1 cells in the presence of acetylcholine at EC20
Format: cell-based
Settings: in the presence of acetylcholine at EC20 (final 0.6 nM), CHO-K1 cells expressing hCHRM1; for EC50: inflection point of M1PAM activity, read-out: IP value; for activity (%) at 10 μM: test compound 10 μM
Description: Measurement of M1 Receptor Positive Allosteric Modulator (M1PAM) Activity
The activity of a test compound in the presence of acetylcholine at EC20 concentration (final concentration 0.6 nM), which affords an action corresponding to 20% of the maximum activity, was measured as PAM activity. The method is as follows. CHO-K1 cells forcibly expressing a human M1 receptor (hCHRM1) were plated on a 384-well black clear bottom plate (BD Falcon) at 5,000 cells/well, and cultured in an incubator at 37° C., 5% CO2 for 1 day. The medium in the cell plate was removed, and assay buffer A (Recording medium (DOJINDO LABORATORIES), 0.1% BSA (Wako Pure Chemical Industries, Ltd.), 2.5 μg/mL Fluo-4 AM (DOJINDO LABORATORIES), 0.08% Pluronic F127 (DOJINDO LABORATORIES), 1.25 mM probenecid (DOJINDO LABORATORIES)) containing a calcium indicator was added at 30 μL/well. The cells were left standing in the incubator at 37° C., 5% CO2 for 30 min, and further left standing at room temperature for 30 min. A test compound prepared by diluting with assay buffer B (HBSS (Invitrogen), 20 mM HEPES (Invitrogen), 0.1% BSA) containing 2.4 nM acetylcholine was added at 10 μL/well, and the fluorescence was measured by FLIPRtetra (Molecular Devices) for 1 min every 1 second. With the definition that the amount of change in the fluorescence on addition of acetylcholine (final concentration 1 μM) is 100% and that on addition of DMSO instead of a test compound is 0%, the activity (%) of the test compound and the inflection point in the concentration-dependent curve of the test compound were calculated as IP values.

| Compound | EC50 [nM] | activity (%) at 10 μM [%] |
| --- | --- | --- |
| 1,5-anhydro-2-deoxy-3-O-(3-oxo-2-(4-(1H-pyrazol-1-yl)benzyl)-2,3-dihydro-1H-isoindol-4-yl)-threo-pentitol [Example 239] | 6.1 | 109 |
| 1,5-anhydro-2-deoxy-4-O-(3-oxo-2-(4-(1H-pyrazol-1-yl)benzyl)-2,3-dihydro-1H-isoindol-4-yl)-threo-pentitol [Example 241] | 13 | 101 |
| O=C1c2c(cccc2O[C@H]2CCCC[C@@H]2O)CN1Cc1ccc(Br)cc1 (relative stereo) [Example 25, 2-(4-bromobenzyl)-7-((trans-2-hydroxycyclohexyl)oxy)isoindolin-1-one] | 190 | 113 |
| Cn1cc(-c2ccc(CN3Cc4cccc(O[C@H]5CCCC[C@@H]5O)c4C3=O)cn2)cn1 (relative stereo) [Example 27] | 6.4 | 97 |
| Cn1cc(-c2ccc(CN3Cc4cccc(O[C@H]5CCCC[C@@H]5O)c4C3=O)s2)cn1 (relative stereo) [Example 28, 7-((trans-2-hydroxycyclohexyl)oxy)-2-((5-(1-methyl-1H-pyrazol-4-yl)-2-thienyl)methyl)isoindolin-1-one] | 7 | 120 |
| O=C1c2c(cccc2O[C@H]2CCCC[C@@H]2O)CN1Cc1ccc(-n2cccn2)cc1 (relative stereo) [Example 29, 7-((trans-2-hydroxycyclohexyl)oxy)-2-(4-(1H-pyrazol-1-yl)benzyl)isoindolin-1-one] | 7.5 | 89 |
| O=C1c2c(cccc2O[C@H]2CCCC[C@@H]2O)CN1Cc1ccc(-c2ccnn2C2CCCCO2)cc1 (relative stereo) [Example 30, 7-((trans-2-hydroxycyclohexyl)oxy)-2-(4-(1-(tetrahydro-2H-pyran-2-yl)-1H-pyrazol-5-yl)benzyl)isoindolin-1-one] | 190 | 104 |
| O=C1c2c(cccc2O[C@H]2CCCC[C@@H]2O)CN1Cc1ccc(-c2ccn[nH]2)cc1 (relative stereo) [Example 31, 7-((trans-2-hydroxycyclohexyl)oxy)-2-(4-(1H-pyrazol-5-yl)benzyl)isoindolin-1-one] | 8.5 | 105 |
| Cc1ccn(-c2ccc(CN3Cc4cccc(O[C@H]5CCCC[C@@H]5O)c4C3=O)cc2)n1 (relative stereo) [Example 32, 7-((trans-2-hydroxycyclohexyl)oxy)-2-(4-(3-methyl-1H-pyrazol-1-yl)benzyl)isoindolin-1-one] | 10 | 110 |
| NC(=O)c1ccc(CN2Cc3cccc(O[C@H]4CCCC[C@@H]4O)c3C2=O)cc1 (relative stereo) [Example 34, 4-((7-((trans-2-hydroxycyclohexyl)oxy)-1-oxo-1,3-dihydro-2H-isoindol-2-yl)methyl)benzamide] | 10 | 92 |
| Cn1cc(-c2cccc(CN3Cc4cccc(O[C@H]5CCCC[C@@H]5O)c4C3=O)c2)cn1 (relative stereo) [Example 39, 7-((trans-2-hydroxycyclohexyl)oxy)-2-(3-(1-methyl-1H-pyrazol-4-yl)benzyl)isoindolin-1-one] | 58 | 97 |
| Cc1ccn(-c2ccc(CN3Cc4cccc(O[C@H]5CCC[C@@H]5O)c4C3=O)cc2)n1 (relative stereo) [Example 40, 7-((trans-2-hydroxycyclopentyl)oxy)-2-(4-(3-methyl-1H-pyrazol-1-yl)benzyl)isoindolin-1-one] | 64 | 117 |
| O=C1c2c(cccc2O[C@H]2CCC[C@@H]2O)CN1Cc1ccc(-n2cccn2)cc1 (relative stereo) [Example 54, 2-(4-(1H-pyrazol-1-yl)benzyl)-7-((trans-2-hydroxycyclopentyl)oxy)isoindolin-1-one] | 160 | 106 |
| O=C1c2c(ccnc2O[C@H]2CCC[C@@H]2O)CN1Cc1ccc(-n2cccn2)cc1 (relative stereo) [Example 77, 4-((trans-2-hydroxycyclopentyl)oxy)-2-(4-(1H-pyrazol-1-yl)benzyl)-1,2-dihydro-3H-pyrrolo[3,4-c]pyridin-3-one] | 39 | 103 |

The remaining compounds from weak to strong by EC50, led by results:

| EC50 [nM] | activity (%) at 10 μM [%] | Compound |
| --- | --- | --- |
| 360 | 100 | O=C1c2c(cccc2O[C@H]2CCCC[C@@H]2O)CN1Cc1cccc(Br)c1 (relative stereo) [Example 48, 2-(3-bromobenzyl)-7-((trans-2-hydroxycyclohexyl)oxy)isoindolin-1-one] |
| 210 | 99 | O=C1c2c(cccc2O[C@H]2CCCC[C@@H]2O)CN1Cc1ccc(Cl)nc1 (relative stereo) [Example 43, 2-((6-chloropyridin-3-yl)methyl)-7-((trans-2-hydroxycyclohexyl)oxy)isoindolin-1-one] |
| 77 | 98 | N#Cc1ccc(CN2Cc3cccc(O[C@H]4CCCC[C@@H]4O)c3C2=O)cc1 (relative stereo) [Example 33, 4-((7-((trans-2-hydroxycyclohexyl)oxy)-1-oxo-1,3-dihydro-2H-isoindol-2-yl)methyl)benzonitrile] |
| 32 | 114 | Cn1cc(-c2ccc(CN3Cc4cccc(O[C@H]5CCCC(F)(F)[C@@H]5O)c4C3=O)cc2)cn1 (relative stereo) [Example 7, 7-((trans-3,3-difluoro-2-hydroxycyclohexyl)oxy)-2-(4-(1-methyl-1H-pyrazol-4-yl)benzyl)isoindolin-1-one] |
| 14 | 134 | Cn1ccc(-c2ccc(CN3Cc4cccc(O[C@H]5CCCC[C@@H]5O)c4C3=O)cc2)n1 (relative stereo) [Example 35, 7-((trans-2-hydroxycyclohexyl)oxy)-2-(4-(1-methyl-1H-pyrazol-3-yl)benzyl)isoindolin-1-one] |
| 13 | 101 | Cn1cc(-c2ccc(CN3Cc4cccc(O[C@H]5CCC[C@@H]5O)c4C3=O)cc2)cn1 (relative stereo) [Example 4, 7-((trans-2-hydroxycyclopentyl)oxy)-2-(4-(1-methyl-1H-pyrazol-4-yl)benzyl)isoindolin-1-one] |
| 9.1 | 104 | Cn1cc(-c2ccc(CN3Cc4cccc(O[C@H]5CCCCC[C@@H]5O)c4C3=O)cc2)cn1 (relative stereo) [Example 3, 7-((trans-2-hydroxycycloheptyl)oxy)-2-(4-(1-methyl-1H-pyrazol-4-yl)benzyl)isoindolin-1-one] |
| 8.7 | 105 | Cn1cc(-c2ccc(CN3Cc4cccc(O[C@H]5CCC(F)(F)C[C@@H]5O)c4C3=O)cc2)cn1 (relative stereo) [Example 2, 7-((trans-4,4-difluoro-2-hydroxycyclohexyl)oxy)-2-(4-(1-methyl-1H-pyrazol-4-yl)benzyl)isoindolin-1-one] |
| 7.2 | 108 | Cc1cc(-c2ccc(CN3Cc4ccnc(O[C@H]5CCC[C@@H]5O)c4C3=O)cc2)ccn1 (relative stereo) [Example 76, 4-((trans-2-hydroxycyclopentyl)oxy)-2-(4-(2-methylpyridin-4-yl)benzyl)-1,2-dihydro-3H-pyrrolo[3,4-c]pyridin-3-one] |
| 7 | 102 | Cn1cc(-c2ccc(CN3Cc4cccc(O[C@H]5CCCC[C@@H]5O)c4C3=O)cc2)cn1 (relative stereo) [Example 1, 7-((trans-2-hydroxycyclohexyl)oxy)-2-(4-(1-methyl-1H-pyrazol-4-yl)benzyl)isoindolin-1-one] |
| 4.1 | 96 | O=C1c2c(cccc2O[C@H]2CCCC[C@@H]2O)CN1Cc1ccc(-c2cn[nH]c2)cc1 (relative stereo) [Example 26, 7-((trans-2-hydroxycyclohexyl)oxy)-2-(4-(1H-pyrazol-4-yl)benzyl)isoindolin-1-one] |
